Series [1] is described as follows: PAMPA (parallel artificial membrane permeability assay). The format is in vitro ADME. The following applies: for Papp at 18 hours, 50 µM: PAMPA. The essentials:
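Artificial membrane was 10% (w/v) egg lecithin plus 0.5% (w/v) cholesterol in dodecane on a PVDF filter. A 10 mM DMSO stock was added at 0.5% (v/v) to donor buffer (50 mM MOPSO, pH 6.5, 5.0% glycocholic acid). After 18 h at 37 °C, LC/MS or LC/UV gave donor and acceptor levels for Pe.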

A short description of series [2]: Metabolic stability in human hepatic microsome. It counts as in vitro ADME. The following applies: microsomes.
Setting [3] is: membrane permeation rate (Pe), 50 mM MOPSO buffer pH 6.5 with 5.0% glycocholic acid, 37° C., 18 hours, read-out: iPAMPA Pe.
Where [4] appears, read: pH 7.4, human hepatic microsome, NADPH(+), read-out: CL NADPH(+).

Where two headings read alike, the source gives them in different places. Starred links: 1 amine or outer side, 2 acyl side, 3 side chain; linkers in the order of their positions; H or OH if unused. Positions of bridges follow the written chain, without caps; N, C: chain ends. Non-standard residues stand in square brackets, D forms with d. Residues, ends and D or L forms follow the SMILES beside them. *: point of attachment. NMeF = CN[C@@H](Cc1ccccc1)C(=O)O; NMeGABA = CN(CCCC(=O)[*:2])[*:1]; NMeI = CC[C@H](C)[C@H](NC)C(=O)O; NMeL = CN[C@@H](CC(C)C)C(=O)O; NMeV = CN[C@H](C(=O)O)C(C)C; NMeA = CN[C@@H](C)C(=O)O; Piperidide = C1CCN(*)CC1; Sar = CNCC(=O)O; tBu = CC(C)(C)*

With `CC[C@H](C)[C@@H]1NC(=O)[C@H](CC(C)C)N(C)C(=O)CN(C)C(=O)[C@H]([C@@H](C)O)NC(=O)[C@H](C)N(C)C(=O)C[C@@H](C(=O)N(C)[C@@H](C)C(=O)N2CCC[C@H]2C(=O)N[C@@H](C)C(=O)N2CCCCC2)NC(=O)[C@H](CC(C)C)N(C)C(=O)[C@H](Cc2ccccc2)N(C)C(=O)[C@H](CC(C)C)N(C)C1=O` [DP-661] ([NMeA]T[Sar][NMeL]I[NMeL][NMeF][NMeL]D[NMeA]PA-Piperidide; lactam N-9), the Papp at 18 hours, 50 µM in series [1] (setting [3]) came out at 25 ×10⁻⁶ cm/s. In series [2] (setting [4]), the microsomal CLint at 1 uM came to 17 µL/min/mg.
Consider `CC[C@H](C)[C@@H]1NC(=O)[C@H](CC(C)C)N(C)C(=O)CN(C)C(=O)[C@H]([C@@H](C)O)NC(=O)[C@H](C)N(C)C(=O)C[C@@H](C(=O)N[C@@H](C)C(=O)N2CCC[C@H]2C(=O)N[C@@H](C)C(=O)N2CCCCC2)NC(=O)[C@H](CC(C)C)N(C)C(=O)[C@H](Cc2ccccc2)N(C)C(=O)[C@H](CC(C)C)N(C)C1=O` [DP-662] ([NMeA]T[Sar][NMeL]I[NMeL][NMeF][NMeL]DAPA-Piperidide; lactam N-9), for which the Papp at 18 hours, 50 µM in series [1] (setting [3]) amounted to 18 ×10⁻⁶ cm/s. Moreover, the microsomal CLint at 1 uM in series [2] (setting [4]) was 101 µL/min/mg.
Regarding `CC[C@H](C)[C@@H]1NC(=O)[C@H](CC(C)C)N(C)C(=O)CN(C)C(=O)[C@H]([C@@H](C)O)NC(=O)[C@H](C)N(C)C(=O)C[C@@H](C(=O)N[C@@H](C)C(=O)N2CCCCC2)NC(=O)[C@H](CC(C)C)N(C)C(=O)[C@H](Cc2ccccc2)N(C)C(=O)[C@H](CC(C)C)N(C)C1=O` [DP-664] ([NMeA]T[Sar][NMeL]I[NMeL][NMeF][NMeL]DA-Piperidide; lactam N-9), the “iPAMPA Pe” value in series [1] (membrane permeation rate (Pe), 50 mM MOPSO buffer pH 6.5 with 5.0% glycocholic acid, 37° C., 18 hours) worked out at 7.0E−05. In addition, the microsomal CLint at 1 uM in series [2] (setting [4]) stood at 304 µL/min/mg.
Regarding `CC[C@H](C)[C@@H]1NC(=O)[C@H](C)NC(=O)C[C@@H](C(=O)N(C)[C@@H](C)C(=O)N[C@H](C(=O)N2CCC[C@H]2C(=O)N[C@H](C(=O)N[C@@H](C)C(=O)N2CCCCC2)C(C)C)[C@@H](C)CC)NC(=O)[C@@H]2CCCN2C(=O)[C@H](CC(C)C)NC(=O)[C@H](Cc2ccccc2)N(C)C(=O)[C@H]([C@@H](C)O)NC(=O)[C@H](Cc2ccccc2)N(C)C(=O)[C@H](C)N(C)C1=O` [DP-665] (AI[NMeA][NMeF]T[NMeF]LPD[NMeA]IPVA-Piperidide; lactam N-9), the Papp at 18 hours, 50 µM in series [1] (pH 6.5) is 4 ×10⁻⁶ cm/s. Further, the microsomal CLint at 1 uM in series [2] (human, pH 7.4, CL NADPH(+)) is 77 µL/min/mg.
As for `CC[C@H](C)[C@H](NC(=O)[C@H](CC(C)C)NC(=O)[C@H](Cc1ccccc1)NC(=O)[C@@H]1CC(=O)N[C@@H](C)C(=O)N[C@@H]([C@@H](C)CC)C(=O)N(C)[C@@H](C)C(=O)N(C)[C@@H](Cc2ccccc2)C(=O)N[C@@H]([C@@H](C)O)C(=O)N(C)[C@@H](Cc2ccccc2)C(=O)N[C@@H](CC(C)C)C(=O)N2CCC[C@H]2C(=O)N1)C(=O)N[C@@H](C)C(=O)N1CCCCC1` [DP-666] (AI[NMeA][NMeF]T[NMeF]LPDFLIA-Piperidide; lactam N-9), in series [1] (pH 6.5), the Papp at 18 hours, 50 µM stood at 3 ×10⁻⁶ cm/s. Moreover, the microsomal CLint at 1 uM in series [2] (human, pH 7.4, CL NADPH(+)) was determined as 74 µL/min/mg.
As for `CC[C@H](C)[C@@H]1NC(=O)[C@H](C)NC(=O)C[C@@H](C(=O)N(C)[C@@H](CC(C)C)C(=O)N(C)[C@@H](C)C(=O)N(C)[C@@H](Cc2ccccc2)C(=O)N[C@@H](C)C(=O)N2CCCCC2)NC(=O)[C@@H]2CCCN2C(=O)[C@H](CC(C)C)NC(=O)[C@H](Cc2ccccc2)N(C)C(=O)[C@H]([C@@H](C)O)NC(=O)[C@H](Cc2ccccc2)N(C)C(=O)[C@H](C)N(C)C1=O` [DP-667] (AI[NMeA][NMeF]T[NMeF]LPD[NMeL][NMeA][NMeF]A-Piperidide; lactam N-9), the Papp at 18 hours, 50 µM in series [1] (setting [3]) turned out to be 19 ×10⁻⁶ cm/s. For the same molecule, the microsomal CLint at 1 uM in series [2] (setting [4]) was 39 µL/min/mg.
`CC[C@H](C)[C@H](NC(=O)[C@H](C)N(C)C(=O)[C@@H]1CC(=O)N[C@@H](C)C(=O)N[C@@H]([C@@H](C)CC)C(=O)N(C)[C@@H](C)C(=O)N(C)[C@@H](Cc2ccccc2)C(=O)N[C@@H]([C@@H](C)O)C(=O)N(C)[C@@H](Cc2ccccc2)C(=O)N[C@@H](CC(C)C)C(=O)N2CCC[C@H]2C(=O)N1)C(=O)N1CCCCC1` [DP-668] (AI[NMeA][NMeF]T[NMeF]LPD[NMeA]I-Piperidide; lactam N-9) returned a Papp at 18 hours, 50 µM in series [1] (pH 6.5) of 26 ×10⁻⁶ cm/s. The molecule further yielded a microsomal CLint at 1 uM in series [2] (human, pH 7.4, CL NADPH(+)) of 142 µL/min/mg.
The molecule `CC[C@H](C)[C@H](NC(=O)[C@@H]1CC(=O)N[C@@H](C)C(=O)N[C@@H]([C@@H](C)CC)C(=O)N(C)[C@@H](C)C(=O)N(C)[C@@H](Cc2ccccc2)C(=O)N[C@@H]([C@@H](C)O)C(=O)N(C)[C@@H](Cc2ccccc2)C(=O)N[C@@H](CC(C)C)C(=O)N2CCC[C@H]2C(=O)N1)C(=O)N1CCCCC1` [DP-669] (AI[NMeA][NMeF]T[NMeF]LPDI-Piperidide; lactam N-9) showed a Papp at 18 hours, 50 µM in series [1] (pH 6.5) of 29 ×10⁻⁶ cm/s. In series [2] (human, pH 7.4, CL NADPH(+)), this molecule had a microsomal CLint at 1 uM of 54 µL/min/mg.
`CC[C@H](C)[C@H]1C(=O)N(C)[C@@H](CC(C)C)C(=O)N[C@@H](Cc2ccccc2)C(=O)N[C@@H]([C@@H](C)O)C(=O)N[C@@H](CC(C)C)C(=O)N(C)[C@@H](Cc2ccccc2)C(=O)N(C)[C@@H](C(C)C)C(=O)N[C@H](C(=O)N(C)CC(=O)N(C)[C@@H](C)C(=O)N(C)[C@@H](CC(C)C)C(=O)N[C@@H](C)C(=O)N2CCCCC2)CC(=O)N[C@H](C)C(=O)N[C@@H](C)C(=O)N1C` [DP-670] ([dA]A[NMeI][NMeL]FTL[NMeF][NMeV]D[Sar][NMeA][NMeL]A-Piperidide; lactam N-10): the Papp at 18 hours, 50 µM in series [1] (setting [3]) amounted to 12 ×10⁻⁶ cm/s. Besides, in series [2] (setting [4]), the microsomal CLint at 1 uM was 22 µL/min/mg.
As to `CC[C@H](C)[C@H]1C(=O)N(C)[C@@H](CC(C)C)C(=O)N[C@@H](Cc2ccccc2)C(=O)N[C@@H]([C@@H](C)O)C(=O)N[C@@H](CC(C)C)C(=O)N(C)[C@@H](Cc2ccccc2)C(=O)N(C)[C@@H](C(C)C)C(=O)N[C@H](C(=O)N2CCC[C@H]2C(=O)N[C@H](C(=O)N[C@@H](C)C(=O)N2CCCCC2)C(C)C)CC(=O)N[C@H](C)C(=O)N[C@@H](C)C(=O)N1C` [DP-671] ([dA]A[NMeI][NMeL]FTL[NMeF][NMeV]DPVA-Piperidide; lactam N-10), the Papp at 18 hours, 50 µM in series [1] (setting [3]) is 16 ×10⁻⁶ cm/s. Moreover, the microsomal CLint at 1 uM in series [2] (setting [4]) amounted to 39 µL/min/mg.
On to `CC[C@H](C)[C@H]1C(=O)N(C)[C@@H](CC(C)C)C(=O)N[C@@H](Cc2ccccc2)C(=O)N[C@@H]([C@@H](C)O)C(=O)N[C@@H](CC(C)C)C(=O)N(C)[C@@H](Cc2ccccc2)C(=O)N(C)[C@@H](C(C)C)C(=O)N[C@H](C(=O)N(C)CC(=O)N[C@@H](C)C(=O)N2CCCCC2)CC(=O)N[C@H](C)C(=O)N[C@@H](C)C(=O)N1C` [DP-672] ([dA]A[NMeI][NMeL]FTL[NMeF][NMeV]D[Sar]A-Piperidide; lactam N-10), for which the Papp at 18 hours, 50 µM in series [1] (setting [3]) came out at 13 ×10⁻⁶ cm/s. Further, in series [2] (setting [4]), the microsomal CLint at 1 uM is 72 µL/min/mg.
Consider `CC(C)C[C@@H]1NC(=O)[C@H](C)NC(=O)C[C@@H](C(=O)N2CCCCC2)NC(=O)[C@H](Cc2ccccc2)N(C)C(=O)[C@H](CC(C)C)N(C)C(=O)[C@H](C)NC(=O)[C@H](Cc2ccccc2)N(C)C(=O)[C@H](CC(C)C)N(C)C1=O` [DP-673] (AL[NMeL][NMeF]A[NMeL][NMeF]D-Piperidide; lactam N-8), for which the Papp at 18 hours, 50 µM in series [1] (setting [3]) was 30 ×10⁻⁶ cm/s. For the same molecule, the microsomal CLint at 1 uM in series [2] (setting [4]) is 631 µL/min/mg.
For the molecule `CC(C)C[C@H]1C(=O)N(C)[C@@H](C)C(=O)N(C)[C@@H](Cc2ccccc2)C(=O)N[C@@H](COC(C)(C)C)C(=O)N[C@H](C(=O)N2CCCCC2)CC(=O)N(C)CCCC(=O)N[C@@H]([C@@H](C)O)C(=O)N1C` [DP-677] ([NMeGABA]T[NMeL][NMeA][NMeF]S(tBu)D-Piperidide; lactam N-7), the Papp at 18 hours, 50 µM in series [1] (setting [3]) stood at 7.2 ×10⁻⁶ cm/s. Moreover, in series [2] (setting [4]), the microsomal CLint at 1 uM stood at 45 µL/min/mg.
On the same counts, the results for `CC(C)C[C@H]1C(=O)N[C@H](C(=O)N2CCCCC2)CC(=O)N(C)[C@@H](C)C(=O)N(C)[C@@H](Cc2ccccc2)C(=O)N(C)[C@@H](CC(C)C)C(=O)N[C@@H]([C@@H](C)O)C(=O)N(C)[C@@H](C)C(=O)N1C` [DP-678] ([NMeA][NMeF][NMeL]T[NMeA][NMeL]D-Piperidide; lactam N-7) are 26 ×10⁻⁶ cm/s and 284 µL/min/mg.
`CC(C)C[C@H]1C(=O)N(C)[C@@H](CC(C)C)C(=O)N[C@H](C(=O)N2CCCCC2)CC(=O)N(C)[C@@H](C)C(=O)N(C)[C@@H](Cc2ccccc2)C(=O)N(C)[C@@H](CC(C)C)C(=O)N[C@@H]([C@@H](C)O)C(=O)N1C` [DP-679] ([NMeA][NMeF][NMeL]T[NMeL][NMeL]D-Piperidide; lactam N-7): in series [1] (setting [3]), the Papp at 18 hours, 50 µM stood at 25 ×10⁻⁶ cm/s. Further, in series [2] (setting [4]), the microsomal CLint at 1 uM is 342 µL/min/mg.
In the case of `CC(C)C[C@H]1C(=O)N[C@H](C(=O)N2CCCCC2)CC(=O)N(C)CCCC(=O)N(C)[C@@H](Cc2ccccc2)C(=O)N[C@@H]([C@@H](C)O)C(=O)N(C)[C@@H](C)C(=O)N[C@@H](COC(C)(C)C)C(=O)N1C` [DP-680] ([NMeGABA][NMeF]T[NMeA]S(tBu)[NMeL]D-Piperidide; lactam N-7), in series [1] (setting [3]), the Papp at 18 hours, 50 µM is 15 ×10⁻⁶ cm/s. In addition, in series [2] (setting [4]), the microsomal CLint at 1 uM worked out at 96 µL/min/mg.
In the case of `CC(C)C[C@H]1C(=O)N[C@H](C(=O)N2CCCCC2)CC(=O)N(C)CCCC(=O)N(C)[C@@H](Cc2ccccc2)C(=O)N[C@@H]([C@@H](C)O)C(=O)N(C)[C@@H](CC(C)C)C(=O)N[C@@H](COC(C)(C)C)C(=O)N1C` [DP-681] ([NMeGABA][NMeF]T[NMeL]S(tBu)[NMeL]D-Piperidide; lactam N-7), in series [1] (setting [3]), the Papp at 18 hours, 50 µM was 28 ×10⁻⁶ cm/s. Further, the microsomal CLint at 1 uM in series [2] (setting [4]) was determined as 275 µL/min/mg.

For the origin of these results see patent US9409952B2, “Peptide-compound cyclization method” (Chugai Seiyaku Kabushiki Kaisha, priority 2011, dated 2016).
